Measurements as given in BindingDB's records for doi:10.1097/00004424-198809001-00017 (Unit&Eacute, 1988).

Experiments:
[1] = target: Hrh3 protein (Rattus norvegicus, UniProt Q5PPG3)
[2] = target: Histamine H3 receptor (Cavia porcellus, UniProt Q9JI35)
Chain of Histamine H3 receptor (Q9JI35 whole entry): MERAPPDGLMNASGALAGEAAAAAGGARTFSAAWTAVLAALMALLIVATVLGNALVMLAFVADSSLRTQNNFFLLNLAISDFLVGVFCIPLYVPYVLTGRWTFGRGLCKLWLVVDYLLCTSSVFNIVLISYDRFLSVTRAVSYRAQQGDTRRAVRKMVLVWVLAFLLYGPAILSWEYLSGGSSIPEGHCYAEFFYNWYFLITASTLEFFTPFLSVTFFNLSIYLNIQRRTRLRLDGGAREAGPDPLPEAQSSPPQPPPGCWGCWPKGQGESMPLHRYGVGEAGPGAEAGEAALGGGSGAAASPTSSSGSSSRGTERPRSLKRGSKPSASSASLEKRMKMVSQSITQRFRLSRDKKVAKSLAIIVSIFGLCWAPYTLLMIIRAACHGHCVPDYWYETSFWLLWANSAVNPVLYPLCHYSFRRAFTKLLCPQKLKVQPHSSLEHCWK

Chain of Hrh3 protein (Q5PPG3 whole entry): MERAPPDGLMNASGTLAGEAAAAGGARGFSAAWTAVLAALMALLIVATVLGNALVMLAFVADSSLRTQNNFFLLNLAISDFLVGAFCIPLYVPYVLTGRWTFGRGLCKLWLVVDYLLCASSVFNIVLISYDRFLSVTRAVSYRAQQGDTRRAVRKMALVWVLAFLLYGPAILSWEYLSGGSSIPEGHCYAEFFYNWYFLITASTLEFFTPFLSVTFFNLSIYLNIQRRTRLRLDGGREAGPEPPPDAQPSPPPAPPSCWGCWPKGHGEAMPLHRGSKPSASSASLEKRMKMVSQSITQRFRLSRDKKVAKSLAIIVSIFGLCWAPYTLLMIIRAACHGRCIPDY

| SMILES | Ki [1] [µM] | Ki [2] [µM] |
| --- | --- | --- |
| S=C(NC1CCCCC1)N1CCC(c2cnc[nH]2)CC1 | 0.0021 | 0.002 |
| C[C@@H](N)Cc1c[nH]cn1 | – | 0.813 |
| c1ncc(CCN2CCCC2)[nH]1 [4-[2-(1-Pyrrolidinyl)ethyl]-imidazole] | – | 0.006 |
| NCCc1c[nH]cn1 [[3H]histamine] | 0.1 | 0.1 |
| C[C@H](N)Cc1c[nH]cn1 [CAS_75614-93-6] | 0.011 | 0.052 |
